Results reported in ChEMBL document CHEMBL5725304, “3,4-dihydro-2H-isoquinoline-1-one and 2,3-dihydro-isoindol-1-one compounds” (2017).
Where “and” joins values, the source holds several entries; their conditions need not be identical. Identical values can stand only once.

Columns and labels:
[1] = target: T1, Cytochrome P450 11B2, mitochondrial (Homo sapiens, UniProt P19099); experiment: (§1) Cellular Enzyme Assay: G-402 cells expressing CYP11 constructs were established as described above and maintained in McCoy's 5a Medium Modified, ATCC Catalog No. 30-2007 containing 10% FCS and 400 ug/ml G418 (Geneticin) at 37° C. under an atmosphere of 5% CO2/95% air. Cellular enzyme assays were performed in DMEM/F12 medium containing 2.5% charcoal treated FCS and appropriate concentration of substrate (0.3-10 uM 11-Deoxycorticosterone, 11-Deoxycortisol or Corticosterone). For assaying enzymatic activity, cells were plated onto 96 well plates and incubated for 16 h. An aliquot of the supernatant is then transferred and analyzed for the concentration of the expected product (Aldosterone for CYP11B2; Cortisol for CYP11B1). The concentrations of these steroids can be determined using HTRF assays from CisBio analyzing either Aldosterone or Cortisol.
T1 sequence (P19099 whole entry): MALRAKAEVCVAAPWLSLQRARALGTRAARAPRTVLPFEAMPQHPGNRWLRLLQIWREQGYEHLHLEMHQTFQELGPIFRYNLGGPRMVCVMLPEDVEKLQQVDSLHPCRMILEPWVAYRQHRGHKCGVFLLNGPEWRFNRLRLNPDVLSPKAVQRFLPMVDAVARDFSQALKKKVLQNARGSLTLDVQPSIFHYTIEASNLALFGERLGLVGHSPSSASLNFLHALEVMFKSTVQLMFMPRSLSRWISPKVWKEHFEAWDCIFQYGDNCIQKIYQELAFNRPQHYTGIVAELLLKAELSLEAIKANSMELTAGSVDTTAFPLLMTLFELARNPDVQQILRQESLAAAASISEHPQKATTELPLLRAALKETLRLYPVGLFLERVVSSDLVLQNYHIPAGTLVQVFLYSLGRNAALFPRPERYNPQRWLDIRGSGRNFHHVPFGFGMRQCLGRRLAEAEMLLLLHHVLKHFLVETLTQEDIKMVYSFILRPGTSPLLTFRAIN

[2] = target: T2, Cytochrome P450 11B1, mitochondrial (Homo sapiens, UniProt P15538); experiment: as §1
T2 sequence (P15538 whole entry): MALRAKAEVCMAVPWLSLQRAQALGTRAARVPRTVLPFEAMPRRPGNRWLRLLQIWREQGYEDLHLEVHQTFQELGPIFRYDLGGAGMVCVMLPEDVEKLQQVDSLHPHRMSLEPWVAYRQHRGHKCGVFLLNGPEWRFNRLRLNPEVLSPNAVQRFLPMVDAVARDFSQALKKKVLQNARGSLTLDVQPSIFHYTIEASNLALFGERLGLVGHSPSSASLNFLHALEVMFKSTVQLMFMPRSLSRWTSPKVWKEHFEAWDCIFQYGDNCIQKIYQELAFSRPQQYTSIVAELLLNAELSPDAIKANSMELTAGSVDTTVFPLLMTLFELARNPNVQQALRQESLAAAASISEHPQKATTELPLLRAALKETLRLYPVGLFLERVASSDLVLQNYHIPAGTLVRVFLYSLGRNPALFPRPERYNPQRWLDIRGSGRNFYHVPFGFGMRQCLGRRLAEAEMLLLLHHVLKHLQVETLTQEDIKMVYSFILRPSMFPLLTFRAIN

EC50 [1]: 1 nM and 0.6 nM
EC50 [2]: 188 nM and 124 nM
Structure (SMILES): CCS(=O)(=O)N1CCC(N(C)c2cncc(N3C(=O)c4ccc(Cl)cc4C3(C)C)c2)C1 (single isomer, unassigned)
